Key:
[1] = molecular target: T1, LBAT (Homo sapiens, UniProt Q14973); assay: Electrogenic transport in Xenopus oocytes expressing LBAT; format: cell-based; settings: maximal induced current relative to glycodeoxycholate (100 μM)
T1 sequence (Q14973 1-349): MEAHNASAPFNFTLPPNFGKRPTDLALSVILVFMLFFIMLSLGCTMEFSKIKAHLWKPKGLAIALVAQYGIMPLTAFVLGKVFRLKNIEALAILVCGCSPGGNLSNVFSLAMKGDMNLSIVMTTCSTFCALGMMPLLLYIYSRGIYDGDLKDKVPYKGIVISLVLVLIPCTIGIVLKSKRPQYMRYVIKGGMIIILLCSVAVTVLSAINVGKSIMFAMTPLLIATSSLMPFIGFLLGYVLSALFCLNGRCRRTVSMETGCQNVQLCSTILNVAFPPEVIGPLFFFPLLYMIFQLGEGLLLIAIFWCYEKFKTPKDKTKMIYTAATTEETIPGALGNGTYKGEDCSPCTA
Experimental: (b) Analysis of Electrogenic Transport in Xenopus Oocytes RNA Preparation: Human IBAT and LBAT Transporter cDNAs were subcloned into a modified pGEM plasmid that contains [NT] untranslated sequences from the Xenopus β-actin gene. These sequences increase RNA stability and protein expression. […] Xenopus oocyte isolation. Xenopus laevis frogs were anesthetized by immersion in Tricaine ([…] in deionized water) for 15 min. […] The oocytes were washed 6 times, and the buffer changed to frog ringer solution containing CaCl2 (1.8 mM). Remaining follicle cells were removed if necessary. Cells were incubated at 16° C., and each oocyte injected with […] solution. Electrophysiology measurements. […] Bath flow was controlled by an automated perfusion system (ALA Scientific Instruments, solenoid valves). For transporter pharmacology, oocytes were clamped at -60 to -90 mV, and continuous current measurements acquired using PowerLab Software and an ADInstruments digitizer. Current signals were lowpass filtered at 20 Hz and acquired at 4-8 Hz. All bath and drug-containing solutions were frog ringers solution containing CaCl2. […] The difference current (baseline subtracted from peak current during drug application) reflected the net movement of charge resulting from electrogenic transport and was directly proportional to tranport rate.

[2] = molecular target: T2, LBAT (Homo sapiens, UniProt Q14973); assay: In vitro uptake by CHO cells transfected with LBAT evaluated by LC-MS/MS; format: cell-based; settings: 0.06 to 1000 μM, 10 min; uptake by untransfected CHO K1 cells subtracted
T2 construct: expressed in transfected cells; host or cells: CHO
Experimental: (§1) Active transport of (8) by the bile acid transport system was evaluated in vitro by incubation of (8) or glycocholate (control substrate) with untransfected CHO K1 cells or CHO cells transfected with either IBAT or LBAT. Cells (10^5 cells/mL) were incubated in 96 well plates with varying concentrations (0.06 to 1000 μM) of (8) or glycocholate for 10 min. Cells were then washed with Hank's Balanced Salt Solution (HBSS) and lysed and extracted by addition of 100 μL of water followed by sonication. Concentrations of (8) or glycocholate in cell extracts were determined by direct injection onto an API 2000 LC/MS/MS equipped with an Agilent 1100 binary pump and autosampler. Separation was achieved using a Keystone BDS Hypersil 2×50 mm column heated to 45° C. during the analysis. The mobile phases were: 0.1% formic acid in water (A) and 0.1% formic acid in acetonitrile (B). The gradient condition was: 5% B for 1 min, increasing to 90% B in 0.2 min, maintained for 2.8 min and returning to 5% B for 2 min. A TurboIonSpray source was used on the API 2000. The analysis was performed in the positive ion mode and MRM transitions of 466/412 and 562/154 were used in the analysis of glycocholate and (8), respectively. Ten microliters of the cell extracts were injected. Peaks were integrated using Analyst quantitation software. […]

[3] = molecular target: T3, Carboxypeptidase A (Bos taurus, UniProt P00730); assay: Stability towards purified carboxypeptidase A; format: in vitro ADME; settings: Carboxypeptidase A (10 units/mL); substrate 2.0 μM; no cofactors; 37° C.
T3 sequence (P00730 111-419): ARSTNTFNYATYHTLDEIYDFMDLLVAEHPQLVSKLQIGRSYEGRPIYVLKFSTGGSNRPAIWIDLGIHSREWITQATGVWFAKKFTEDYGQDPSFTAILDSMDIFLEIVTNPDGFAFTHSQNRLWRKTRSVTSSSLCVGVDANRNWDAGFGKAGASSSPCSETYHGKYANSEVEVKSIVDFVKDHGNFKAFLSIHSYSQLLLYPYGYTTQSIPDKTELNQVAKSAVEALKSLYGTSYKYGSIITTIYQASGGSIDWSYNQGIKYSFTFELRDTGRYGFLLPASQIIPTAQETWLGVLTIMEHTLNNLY

[4] = molecular target: T4, IBAT (Homo sapiens, UniProt Q12908); assay: In vitro uptake by CHO cells transfected with IBAT evaluated by LC-MS/MS; format: cell-based; settings: 0.06 to 1000 μM, 10 min; uptake by untransfected CHO K1 cells subtracted
T4 construct: expressed in transfected cells; host or cells: CHO
T4 sequence (Q12908 whole entry): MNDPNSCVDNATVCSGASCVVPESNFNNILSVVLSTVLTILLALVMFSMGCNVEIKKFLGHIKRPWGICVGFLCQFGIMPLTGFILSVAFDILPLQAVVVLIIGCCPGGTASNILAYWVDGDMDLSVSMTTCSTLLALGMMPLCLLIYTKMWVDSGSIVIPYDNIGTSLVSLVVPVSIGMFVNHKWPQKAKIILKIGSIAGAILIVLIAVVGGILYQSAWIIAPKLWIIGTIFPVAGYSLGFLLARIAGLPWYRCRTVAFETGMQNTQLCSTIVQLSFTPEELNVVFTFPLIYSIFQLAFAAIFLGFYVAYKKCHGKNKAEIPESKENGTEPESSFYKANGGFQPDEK
Experimental: as §1

[5] = Secretion in bile after oral administration to bile duct-cannulated rats; format: in vivo, Sprague-Dawley rats; settings: single oral dose of (8) 85.25 mg/kg
Experimental: Sustained release of gabapentin from a prodrug that is subject to enterohepatic recirculation requires that a proportion of the intact prodrug be absorbed after oral administration and subsequently secreted into the bile intact. The potential for enterohepatic recirculation of intact (8) was examined in rats with indwelling bile duct fistulae. […] Bile was collected continuously in aliquots over 24 hours. Plasma and bile samples were frozen at −80° C. until analyzed. […] Concentrations of intact (8) in bile were similarly determined by LC/MS/MS. Bile (20 μL) was diluted 1:1000 with methanol and injected directly onto the HPLC system. Concentrations of (8) in bile reached a maximum at ˜6 hours post-dosing and were sustained up to 24 hours.

[6] = male, Sprague-Dawley, rat, in vivo, po, 85.25 mg/kg
[7] = Pharmacokinetics after oral administration to rats; settings: single oral dose of gabapentin 25 mg/kg

In the case of `CC(CCC(=O)NCC(=O)NCC1(CC(=O)O)CCCCC1)C1CCC2C3C(O)CC4CC(O)CCC4(C)C3CC(O)C12C` (stereo not shown) [(13), Cholyl-Gly-Gabapentin], the “% Max. (GDC)” value [1] is reported as 38%.
With `CC(CCC(=O)NCC1(CC(=O)O)CCCCC1)C1CCC2C3C(O)CC4CC(O)CCC4(C)C3CC(O)C12C` (stereo not shown) [Compound (8)] the “Active uptake into LBAT transfected cells” value [2] was “Active uptake”, the “Percent of Gabapentin Released in 60 min” value [3] was “Stable” and the “Active uptake into IBAT transfected cells” value [4] was “Active uptake”. For the same compound, the “time of maximum concentration of (8) in bile” value [5] was roughly 6 h, the “time to which concentrations of (8) in bile were sustained” value [5] was 24 h and the “gabapentin in plasma of bile duct-cannulated rats” value ([5]; analyte gabapentin) was “no gabapentin was detected”. The “time of maximum concentration of intact (8) in plasma” value [6] was roughly 8 h and the “time to which concentrations of intact (8) in plasma were sustained” value [6] was 24 h.
In the case of `NCC1(CC(=O)O)CCCCC1` [gabapentin, 1-aminomethyl-1-cyclohexaneacetic acid], the “terminal half-life of gabapentin in plasma” value [7] is reported as 2.4 ± 0.5 h.

— patent US7601708B2, “Bile-acid derived compounds for providing sustained systemic concentrations of drugs after oral administration” (XenoPort, Inc., priority 2000, dated 2009)
